Measured values taken from patent US20110092600A1, “PHARMACEUTICAL COMPOSITIONS COMPRISING AMINOCYCLOHEXANE DERIVATIVES” (MERZ PHARMA GMBH & KGAA, priority 2008, published 2011).

Key:
[1] = Isothermal titration calorimetry (ITC) of complexation with HPBCD; assay type: physicochemical
Experimental: (§1) Complexes between neramexane mesylate and either hydroxypropyl-beta-cyclodextrin (HPBCD; grade: Kleptose™ HPB) or hydroxypropyl-gamma-cyclodextrin (HPGCD; grade: Cavasol™ W8 HP Pharma) are formed and investigated by isothermal titration calorimetry (ITC). The experiments are performed on a Microcal MCS-ITC instrument. The procedure consists of iteratively adding small portions of a test solution (here: a neramexane mesylate solution) through a motorised microlitre syringe to a receptor solution (here: a cyclodextrin solution) located in the calorimeter. Upon complexation, an exothermic or endothermic signal is produced which represents the sum of all thermal events including complexation itself, but also heats of dilution or (de)protonation. The titration curves are evaluated with the Microcal Origin software V2.9 with its original data evaluation module for titration calorimetric evaluations.
(§2) The experiments are carried out using aqueous phosphate buffer of pH 6 as a solvent. Solutions of neramexane mesylate, HPBCD, and HPGCD of various concentrations are prepared, and a number of titrations are conducted using different maximal molar ratios of neramexane to cyclodextrin (after complete addition of the drug substance), ranging from 1.25 to 5. Titrations with solvent solutions alone and in combination with cyclodextrin solution are performed to obtain curves indicating the heats of dilution, which may be used as baseline data for the correction of the complexation curves.

[2] = Isothermal titration calorimetry (ITC) of complexation with HPGCD; assay type: physicochemical
Experimental: as §1, §2

[3] = final molar ratio 1.25, aqueous phosphate buffer pH 6
[4] = final molar ratio of neramexane to cyclodextrin 5, aqueous phosphate buffer pH 6
[5] = final molar ratio 1.8, aqueous phosphate buffer pH 6

thermal nature of complexation ([1]; aqueous phosphate buffer pH 6): exothermic | equilibrium constant [1, 3]: 413 M⁻¹ | stoichiometry of binding (of neramexane per cyclodextrin molecule) [1, 3]: 0.4 | equilibrium constant [1, 4]: 788 M⁻¹ | stoichiometry of binding (of neramexane per cyclodextrin molecule) [1, 4]: 0.84 | thermal nature of complexation ([2]; aqueous phosphate buffer pH 6): endothermic | equilibrium constant [2, 5]: 112 M⁻¹ | stoichiometry of binding [2, 5]: 0.93
Compound: CC1(C)CC(C)(C)CC(C)(N)C1 [neramexane, 1-amino-1,3,3,5,5-pentamethylcyclohexane]
